Reference: the supplement of paper PMC13380429

Columns and labels:
Conditions in all cases: 72 h
Vero E6 [1] = experiment: drug sensitivity score (DSS) for viability; higher = more toxic; extreme values may be limits of the assay
Caco-2 [2] = experiment: as above
HepG2 [3] = experiment: as above
Calu-3 [4] = experiment: as above
U2OS [5] = experiment: as above
Vero E6 [6] = experiment: cell viability relative to DMSO; higher = less toxic
Caco-2 [7] = experiment: as above
HepG2 [8] = experiment: as above
Calu-3 [9] = experiment: as above
U2OS [10] = experiment: as above
Vero E6 [11] = experiment: relative viability EC50 (midpoint between 100% and the lowest measured viability); higher = less toxic
Caco-2 [12] = experiment: as above
HepG2 [13] = experiment: as above
Calu-3 [14] = experiment: as above
U2OS [15] = experiment: as above

Structure (SMILES) | drug sensitivity score (Vero E6 [1]) | drug sensitivity score (Caco-2 [2]) | drug sensitivity score (HepG2 [3]) | drug sensitivity score (Calu-3 [4]) | drug sensitivity score (U2OS [5]) | cell viability (Vero E6 [6]; 1 nM) [%] | cell viability (Vero E6 [6]; 10 nM) [%] | cell viability (Vero E6 [6]; 100 nM) [%] | cell viability (Vero E6 [6]; 1000 nM) [%] | cell viability (Vero E6 [6]; 10000 nM) [%] | cell viability (Caco-2 [7]; 1 nM) [%] | cell viability (Caco-2 [7]; 10 nM) [%] | cell viability (Caco-2 [7]; 100 nM) [%] | cell viability (Caco-2 [7]; 1000 nM) [%] | cell viability (Caco-2 [7]; 10000 nM) [%] | cell viability (HepG2 [8]; 1 nM) [%] | cell viability (HepG2 [8]; 10 nM) [%] | cell viability (HepG2 [8]; 100 nM) [%] | cell viability (HepG2 [8]; 1000 nM) [%] | cell viability (HepG2 [8]; 10000 nM) [%] | cell viability (Calu-3 [9]; 1 nM) [%] | cell viability (Calu-3 [9]; 10 nM) [%] | cell viability (Calu-3 [9]; 100 nM) [%] | cell viability (Calu-3 [9]; 1000 nM) [%] | cell viability (Calu-3 [9]; 10000 nM) [%] | cell viability (U2OS [10]; 1 nM) [%] | cell viability (U2OS [10]; 10 nM) [%] | cell viability (U2OS [10]; 100 nM) [%] | cell viability (U2OS [10]; 1000 nM) [%] | cell viability (U2OS [10]; 10000 nM) [%] | relative viability EC50 (Vero E6 [11]) [µM] | relative viability EC50 (Caco-2 [12]) [µM] | relative viability EC50 (HepG2 [13]) [µM] | relative viability EC50 (Calu-3 [14]) [µM] | relative viability EC50 (U2OS [15]) [µM]
CC(C)(C)C(=O)OCOC(=O)[C@@H]1N2C(=O)[C@@H](/N=C/N3CCCCCC3)[C@H]2SC1(C)C [pivmecillinam] | 0 | 0 | 0 | 0 | 0 | 106 | 102 | 96.6 | 104 | 92.8 | 88.8 | 92.9 | 93.3 | 90.7 | 97.2 | 94.7 | 92.7 | 96.1 | 95.5 | 91.9 | 90.9 | 93.1 | 97.9 | 94.9 | 112 | 102 | 99.8 | 103 | 98.9 | 104 | > 10 | > 10 | > 10 | > 10 | > 10
O=C1C[C@@]2(C(=O)N1)C(=O)N(Cc1ccc(Br)cc1F)C(=O)c1cccn12 [ranirestat] | 0 | 0 | 0 | 0 | 0 | 94 | 96.7 | 90.8 | 92.2 | 100 | 99.6 | 98.4 | 101 | 98.6 | 103 | 102 | 106 | 90.6 | 99.2 | 104 | 92.6 | 104 | 104 | 102 | 95.8 | 96.8 | 97.1 | 103 | 96.8 | 100 | > 10 | > 10 | > 10 | > 10 | > 10
Cc1cccc(C)c1NC(=O)C1CCCCN1C (stereo not given) [mepivacaine] | 0 | 0 | 0 | 0 | 0 | 96.3 | 91.4 | 99.2 | 103 | 107 | 92.1 | 81.4 | 102 | 90.6 | 108 | 96.8 | 107 | 105 | 115 | 104 | 89.7 | 97.8 | 93.9 | 99.6 | 103 | 98 | 95.8 | 99.4 | 97.4 | 104 | > 10 | > 10 | > 10 | > 10 | > 10
COc1ncc2cc(C(=O)Nc3cc(C(=O)NCc4cccc(Cl)c4)ccc3Cl)c(=O)[nH]c2n1 [TC-S-7004] | 0 | 0 | 0 | 0 | 0 | 104 | 101 | 102 | 100 | 95 | 111 | 107 | 99.6 | 98.6 | 95 | 98.6 | 97.4 | 100 | 87.7 | 101 | 94.8 | 94.8 | 105 | 104 | 104 | 98.8 | 102 | 103 | 103 | 99.1 | > 10 | > 10 | > 10 | > 10 | > 10
